In patent publication US8796292B2, “Selective antibacterials for clostridium difficile infections” (GLSynthesis Inc., priority 2009, dated 2014):
≈ marks a conversion by molar mass, not a printed value. Where two headings read alike, the source gives them in different places.

Key:
L. casei = assay: agar dilution MIC assay of anaerobic bacteria; type: cell-based, Lactobacillus casei; conditions: Lacticaseibacillus casei, Strain no. 1722 (ATCC strain), Table 3
Protocol: (§1) Each compound was assayed against a panel of anaerobic bacteria in culture, consisting of Gram-positive organisms, such as Lactobacilli, Bifidobacteria, Clostridium spp., and Gram-negative bacteria, such as […] fragilis spp., according to guidelines of the Clinical and Laboratory Standards Institute (CLSI document M11-A7, CLSI, Wayne, Pa., 2007). […] One tenth mL of diluted bacteria containing 500-1000 colony-forming units (CFU) was plated and spread, and the plates incubated at 37° C. for 24-48 hours. MIC (minimum inhibitory concentration) is equivalent to the lowest concentration in μg/ml at which growth, i.e., colony formation, is not observed. […] Bacteria were assayed using a reference agar dilution method. Drug dilutions and drug-supplemented agar plates were prepared manually. The test organisms were maintained frozen at −80° C. The isolates were sub-cultured on Supplemented Brucella Agar (SBA) plates in a Bactron II anaerobic chamber and incubated for 48 hours at 35-36° C. in the Bactron II anaerobe chamber. Following inoculation, the drug-supplemented plates were incubated at 35° C. for 48 hours in the anaerobic environment (5% hydrogen, 5% carbon dioxide, 90% nitrogen) of the Bactron II. The MIC in μg/ml was read per Clinical and Laboratory Standards Institute guidelines.

Ba. fragilis = assay: agar dilution MIC assay of anaerobic bacteria; type: cell-based; conditions: Bacteroides fragilis, B. fragilis
Protocol: as §1

L. acidophilus = assay: agar dilution MIC assay of anaerobic bacteria; type: cell-based; conditions: Lactobacillus acidophilus, Strain no. 0681, Table 3
Protocol: as §1

Bi. brevi = assay: agar dilution MIC assay of anaerobic bacteria; type: cell-based, Bifidobacterium brevi; conditions: Bifidobacterium breve; Bi. Breve, Strain no. 3967 (ATCC strain), Table 3
Protocol: as §1

Bi. longum = assay: agar dilution MIC assay of anaerobic bacteria; type: cell-based, Bifidobacterium longum; conditions: Bifidobacterium longum; Bi. Longum, Strain no. 3968 (ATCC strain), Table 3; read-out: MIC
Protocol: as §1

E. lentum = assay: agar dilution MIC assay of anaerobic bacteria; type: cell-based, Eubacterium lentum; conditions: Eggerthella lenta; Eu. Lentum, Strain no. 1274 (ATCC strain), Table 3; read-out: MIC
Protocol: as §1

C. difficile = assay: agar dilution MIC assay of anaerobic bacteria; type: cell-based, Clostridium difficile; conditions: for MIC: Clostridioides difficile, read-out: MIC
Protocol: as §1

C. diff. (ATCC43255) = assay: clindamycin-induced C. diff. infection model in Syrian golden hamsters; type: in vivo; conditions: for % Survivors at 120 hr / Survivors at 24 hr / Survivors at 48 hr / Survivors at 66 hr / Survivors at 72 hr / Survivors at 96 hr: n = 6 hamsters
Description: Compound 359E was given orally as a suspension in 1% carboxymethylcellulose to Syrian Golden hamsters, pretreated subcutaneously with clindamycin and infected orally with C. diff. (ATCC43255) as described in Table 5.

In the case of `O=c1[nH]c(NCc2ccc(Cl)c(Cl)c2)nc2ncn(CCCCCN3CCOCC3)c12` [Compound 359E, 7-[5-(N-morpholinyl)pentyl]-2-(3,4-dichlorobenzylamino)-6-oxopurine], the MIC (L. casei) is reported as 16 µg/mL (≈ 34.4 µM), the MIC (Ba. fragilis; Micromyx Number 0123 (ATCC strain), Table 2) is reported as greater than 32 µg/mL and the MIC (Ba. fragilis; Strain no. 0123 (ATCC strain), Gram-negative (control), Table 3) is reported as greater than 32 µg/mL. For the same compound, the MIC (L. acidophilus) was 2 µg/mL (≈ 4.3 µM), the MIC (Bi. brevi) was greater than 32 µg/mL and the MIC (Bi. longum) was greater than 32 µg/mL. For the same compound, the MIC (E. lentum) was greater than 32 µg/mL, the MIC (C. difficile; C. diff. Strain no. 18285, Table 4) was 8 µg/mL (≈ 17.2 µM) and the MIC (C. difficile; C. diff. Strain no. 19265, Table 4) was 8 µg/mL (≈ 17.2 µM). The MIC (C. difficile; C. diff. Strain no. 19273, Table 4) was 8 µg/mL (≈ 17.2 µM), the MIC (C. difficile; C. diff. Strain no. 19281, Table 4) was 8 µg/mL (≈ 17.2 µM) and the MIC (C. difficile; C. diff. Strain no. 19291, Table 4) was 4 µg/mL (≈ 8.6 µM). It also gave an MIC (C. difficile; C. diff. Strain no. 19369, Table 4) of 8 µg/mL (≈ 17.2 µM), an MIC (C. difficile; C. diff. Strain no. 19382, Table 4) of 2 µg/mL (≈ 4.3 µM) and an MIC (C. difficile; C. diff. Strain no. 19540, Table 4) of 4 µg/mL (≈ 8.6 µM). The MIC (C. difficile; C. diff. Strain no. 19580, Table 4) was 2 µg/mL (≈ 4.3 µM), the MIC (C. difficile; C. diff. Strain no. 19680, Table 4) was 8 µg/mL (≈ 17.2 µM) and the MIC (C. difficile; C. diff. Strain no. 19681, Table 4) was 8 µg/mL (≈ 17.2 µM). The MIC (C. difficile; C. diff. Strain no. 19683, Table 4) was 8 µg/mL (≈ 17.2 µM), the MIC (C. difficile; C. diff. Strain no. 19687, Table 4) was 8 µg/mL (≈ 17.2 µM) and the MIC (C. difficile; C. diff. Strain no. 20066, Table 4) was 8 µg/mL (≈ 17.2 µM). It also gave an MIC (C. difficile; C. diff. Strain no. 20152, Table 4) of 8 µg/mL (≈ 17.2 µM), an MIC (C. difficile; C. diff. Strain no. 20307, Table 4) of 8 µg/mL (≈ 17.2 µM) and an MIC (C. difficile; C. diff. Strain no. 20494, Table 4) of 8 µg/mL (≈ 17.2 µM). For the same compound, the MIC (C. difficile; C. diff. Strain no. 20680, Table 4) was 8 µg/mL (≈ 17.2 µM), the MIC (C. difficile; C. diff. Strain no. 20934, Table 4) was 2 µg/mL (≈ 4.3 µM) and the MIC (C. difficile; C. diff. Strain no. 21099, Table 4) was 8 µg/mL (≈ 17.2 µM). For the same compound, the MIC (C. difficile; C. diff., Micromyx Number 3579, Table 2) was 2 µg/mL (≈ 4.3 µM), the MIC (C. difficile; C. diff., Micromyx Number 3580, Table 2) was 2 µg/mL (≈ 4.3 µM) and the MIC (C. difficile; C. diff., Micromyx Number 3581, Table 2) was 2 µg/mL (≈ 4.3 µM). The MIC (C. difficile; C. diff., Micromyx Number 3582 (ATCC strain), Table 2) was 2 µg/mL (≈ 4.3 µM), the MIC (C. difficile; C. diff., Strain no. 3580, Table 3) was 4 µg/mL (≈ 8.6 µM) and the MIC (C. difficile; C. diff., Strain no. 3581, Table 3) was 2 µg/mL (≈ 4.3 µM). For the same compound, the MIC (C. difficile; C. diff., Strain no. 3582, Table 3) was 8 µg/mL (≈ 17.2 µM), the MIC (C. difficile; C. diff., Strain no. 3584, Table 3) was 2 µg/mL (≈ 4.3 µM) and the MIC (C. difficile; C. diff., Strain no. 3585, Table 3) was 4 µg/mL (≈ 8.6 µM). For the same compound, the MIC (C. difficile; C. diff., Strain no. 3586, Table 3) was 2 µg/mL (≈ 4.3 µM), the MIC (C. difficile; C. diff., Strain no. 3587, Table 3) was 4 µg/mL (≈ 8.6 µM) and the MIC (C. difficile; C. diff., Strain no. 3588, Table 3) was 0.5 µg/mL (≈ 1.07 µM). For the same compound, the MIC (C. difficile; C. diff., Strain no. 3589, Table 3) was 4 µg/mL (≈ 8.6 µM), the MIC (C. difficile; C. diff., Strain no. 4381 (ATCC strain), Table 3) was 2 µg/mL (≈ 4.3 µM) and the “potency and selectivity against C. diff. versus other Gram-positive anaerobes (in words)” value (C. difficile; summary of MIC panels, Tables 1 and 3) was “best profile”. For the same compound, the “% Survivors at 120 hr” value (C. diff. (ATCC43255); 25 mg/kg PO bid for 3 days) was 100%, the “Survivors at 24 hr” value (C. diff. (ATCC43255); 25 mg/kg PO bid for 3 days) was 6 and the “Survivors at 48 hr” value (C. diff. (ATCC43255); 25 mg/kg PO bid for 3 days) was 6. For the same compound, the “Survivors at 66 hr” value (C. diff. (ATCC43255); 25 mg/kg PO bid for 3 days) was 6, the “Survivors at 72 hr” value (C. diff. (ATCC43255); 25 mg/kg PO bid for 3 days) was 6 and the “Survivors at 96 hr” value (C. diff. (ATCC43255); 25 mg/kg PO bid for 3 days) was 6. The “% Survivors at 120 hr” value (C. diff. (ATCC43255); 50 mg/kg PO bid for 3 days) was 100%, the “Survivors at 24 hr” value (C. diff. (ATCC43255); 50 mg/kg PO bid for 3 days) was 6 and the “Survivors at 48 hr” value (C. diff. (ATCC43255); 50 mg/kg PO bid for 3 days) was 6. For the same compound, the “Survivors at 66 hr” value (C. diff. (ATCC43255); 50 mg/kg PO bid for 3 days) was 6, the “Survivors at 72 hr” value (C. diff. (ATCC43255); 50 mg/kg PO bid for 3 days) was 6 and the “Survivors at 96 hr” value (C. diff. (ATCC43255); 50 mg/kg PO bid for 3 days) was 6. The “protection from lethal infection with C. diff. (in words)” value (C. diff. (ATCC43255); oral suspension in 1% carboxymethylcellulose, twice daily) was “protected hamsters from lethal infection”.
